7 compounds from ChEMBL document CHEMBL3616454, “Synthesis and antiviral activity of some new bis-1,3-thiazole derivatives” (Eur J Med Chem, 2015) can be followed below.

≈ marks a conversion by molar mass, not a printed value.

Data set [1] is described as follows: Selectivity index, ratio of CC50 for human HuH7 cells to EC50 for HCV 2a (JFH1). Also noted: species or system Huh-7.
Data set [2] relates to Hepatitis C virus. Kind of data set: Antiviral activity against HCV 1a/2a (H77/JFH1) infected in human Huh7.5 cells assessed as reduction of virus induced cytopathic effect by luciferase reporter assay. Type of data set: functional, organism-based, Hepacivirus hominis. As to conditions: Huh-7. On the technique in general: Damage to the host cells serves as the signal in cytopathic effect assays.

Data set [3] relates to Hepatitis C virus. Nature of the data set: Antiviral activity against HCV 1a H77 infected in human Huh7.5 cells assessed as reduction of virus induced cytopathic effect by qRT-PCR. It counts as functional, cell-based, Hepacivirus hominis. The note with it: genotype 1a H77, Huh-7.
The nature of data set [4]: Cytotoxicity against human HuH7 cells assessed as cell viability by cytoTox1 cell proliferation assay. Type of data set: cell-based, Huh-7.
The nature of data set [5]: Selectivity index, ratio of CC50 for human HuH7.5 cells to EC50 for HCV 2a/2a (J6/JFH1). Further details: species or system Huh-7.
Data set [6] is described as follows: Selectivity index, ratio of CC50 for human HuH7 cells to EC50 for Hepatitis C virus 1b CON1. It counts as toxicity, cell-based, Huh-7. As to conditions: read-out: Ratio CC50/EC50.
Data set [7] deals with Hepatitis C virus. Nature of the data set: Antiviral activity against HCV 1b Con1 infected in human Huh7.5 cells assessed as reduction of virus induced cytopathic effect by qRT-PCR. Type of data set: functional, cell-based, Hepacivirus hominis. As to conditions: genotype 1b Con1, Huh-7.
For data set [8], the system named is Hepatitis C virus. Kind of data set: Antiviral activity against HCV 2a/2a (J6/JFH1) infected in human Huh7.5 cells assessed as reduction of virus induced cytopathic effect by luciferase reporter assay. It counts as functional, organism-based, Hepacivirus hominis. The note with it: Huh-7.
Data set [9] is described as follows: Cytotoxicity against human Huh/NeoET cells assessed as cell viability by cytoTox1 cell proliferation assay. Type of data set: cell-based.
Data set [10] in a line: Selectivity index, ratio of CC50 for human HuH7 cells to EC50 for HCV 1a/2a (H77/JFH1). Further details: species or system Huh-7.
In data set [11] the test system is Hepatitis C virus. Nature of the data set: Antiviral activity against Hepatitis C virus 1b CON1 infected in human Huh/NeoET cells expressing luciferase assessed as reduction of virus induced cytopathic effect by luciferse reporter assay. The note with it: genotype 1b Con1, Huh/NeoET. It counts as functional, cell-based, Hepacivirus hominis.
Data set [12] concerns Hepatitis C virus. Kind of data set: Antiviral activity against HCV 1b/2a (Con-1/JFH-1) infected in human Huh7.5 cells assessed as reduction of virus induced cytopathic effect by luciferase reporter assay. Type of data set: functional, organism-based, Hepacivirus hominis. The note with it: Huh-7.
The nature of data set [13]: Selectivity index, ratio of CC50 for luciferase expressing Huh/NeoET cells to EC50 for Hepatitis C virus 1b CON1. Type of data set: toxicity, cell-based. As to conditions: human, read-out: Ratio CC50/EC50.
Data set [14] in a line: Selectivity index, ratio of CC50 for human HuH7.5 cells to EC50 for HCV 1b/2a (Con-1/JFH-1). Also noted: species or system Huh-7.
The subject of data set [15] is Hepatitis C virus. Nature of the data set: Antiviral activity against HCV 2a (JFH1) infected in human Huh7 cells assessed as reduction of virus induced cytopathic effect by luciferase reporter assay. It counts as functional, organism-based, Hepacivirus hominis. As to conditions: Huh-7.
The nature of data set [16]: Selectivity index, ratio of CC50 for human HuH7 cells to EC50 for Hepatitis C virus 1a H77. It counts as toxicity, cell-based, Huh-7. As to conditions: read-out: Ratio CC50/EC50.
A short description of data set [17]: Cytotoxicity against human Huh7.5 cells assessed as cell viability by cytoTox1 cell proliferation assay. Type of data set: cell-based, Huh-7.5.
Data set [18] is described as follows: Antiviral activity against Influenza A virus (A/California/07/2009(H1N1) infected in MDCK cell line assessed as reduction of virus induced cytopathic effect by visual assay. Type of data set: functional, cell-based.
The nature of data set [19]: Cytotoxicity against MDCK cells assessed as cell viability by neutral red assay. Type of data set: cell-based, Canis lupus familiaris. The note with it: dog.
Data set [20] is described as follows: Antiviral activity against Influenza A virus (A/California/07/2009(H1N1)) infected in MDCK cell line assessed as reduction of virus induced cytopathic effect by neutral red assay. It counts as functional, cell-based.
A short description of data set [21]: Selectivity index, ratio of CC50 for MDCK cells by neutral red method to EC50 for Influenza A virus (A/California/07/2009(H1N1) virus by neutral red method. Type of data set: toxicity, cell-based. As to conditions: dog, read-out: Ratio CC50/EC50.
Data set [22] is described as follows: Selectivity index, ratio of CC50 for MDCK cells by visual method to EC50 for Influenza A virus (A/California/07/2009(H1N1) virus by visual method. It counts as toxicity, cell-based. The note with it: dog, read-out: Ratio CC50/EC50.
Data set [23] in a line: Cytotoxicity against MDCK cells assessed as cell viability by visual assay. The note with it: dog. Type of data set: cell-based, Canis lupus familiaris.

For `CC(=O)C1=NN(c2ccccc2)/C(=C2\S/C(=N/c3nc(-c4c(C)n(C)n(-c5ccccc5)c4=O)cs3)N(c3ccccc3)C2=O)S1`, the “Ratio CC50/EC50” value is reported as over 1 in data set [1], over 13 in [5], over 1 in data set [10] and over 18 in [14]. The EC50 in the data set on Hepatitis C virus [2] was 13.6 µM; with Hepatitis C virus [3] it was over 20 µM; in the data set with Hepatitis C virus [7], 0.46 µM; in the data set on Hepatitis C virus [8] it was 1.54 µM; in the data set on Hepatitis C virus [11], 0.56 µM; in the data set on Hepatitis C virus [12], 1.09 µM. For the same compound, the EC50 with Hepatitis C virus [15] was found to be 17.7 µM. Moreover, the EC90 is over 20 µM in the data set with Hepatitis C virus [2]; over 20 µM in the data set on Hepatitis C virus [3]; over 20 µM in the data set with Hepatitis C virus [7]; over 20 µM in the data set with Hepatitis C virus [8]; 1.81 µM with Hepatitis C virus [11]; over 20 µM in the data set on Hepatitis C virus [12]. For the same compound, in the data set with Hepatitis C virus [15], the EC90 was over 20 µM. In addition, the 50% cytotoxic concentration (CC50) in data set [4], in data set [9] and in data set [17] was over 20 µM each time. Also, the selectivity ratio is over 43 in data set [6], over 36 in data set [13] and 1 in data set [16].

With `CC(=O)C1=NN(c2ccc(Cl)cc2)/C(=C2\S/C(=N/c3nc(-c4c(C)n(C)n(-c5ccccc5)c4=O)cs3)N(c3ccccc3)C2=O)S1`, in [9], the CC50 was over 20 µM. In addition, in the data set with Hepatitis C virus [11], the EC50 was 1.12 µM and the EC90 turned out to be 14.4 µM. In [13], the selectivity ratio was over 18.

Consider `CCOC(=O)C1=C(C)N(c2ccccc2)/C(=C2\S/C(=N/c3nc(-c4c(C)n(C)n(-c5ccccc5)c4=O)cs3)N(c3ccccc3)C2=O)S1`, for which the EC50 in data set [18] was determined as 68 µg/mL (≈ 96.2 µM); in data set [20], 92 µg/mL (≈ 130 µM). For the same compound, the CC50 in data set [19] and in data set [23] was over 100 µg/mL throughout. The selectivity ratio is over 1.1 in data set [21] and over 1.5 in data set [22].

With `CC(=O)C1=NN(c2ccc(C)cc2)/C(=C2\S/C(=N/c3nc(-c4c(C)n(C)n(-c5ccccc5)c4=O)cs3)N(c3ccccc3)C2=O)S1`, the CC50 in data set [9] is over 20 µM. In the data set with Hepatitis C virus [11], the EC50 turned out to be 1.04 µM and the EC90 came out at 4.76 µM. Also, the selectivity ratio in [13] was over 19.

On to `NC(=O)c1ncn([C@@H]2O[C@H](CO)[C@@H](O)[C@H]2O)n1` [RIBAVIRIN], for which the results for the EC50 in [18] and in data set [20] were 24 µg/mL (≈ 98.3 µM) and 16 µg/mL (≈ 65.5 µM), respectively. The CC50 in data set [19] and in data set [23] was over 320 µg/mL in each case. Also, the selectivity ratio in data set [21] is over 2; in data set [22], over 32.

With `COc1ccc(N2N=C(C(C)=O)S/C2=C2/S/C(=N/c3nc(-c4c(C)n(C)n(-c5ccccc5)c4=O)cs3)N(c3ccccc3)C2=O)cc1`, the CC50 in data set [9] is over 20 µM. In the data set on Hepatitis C virus [11], the EC50 was found to be 2.8 µM and the EC90 amounted to 15.5 µM. Further, the selectivity ratio in [13] was over 7.

In the case of `Cc1c(-c2csc(/N=C3/S/C(=C4/SCC(=O)N4c4ccccc4)C(=O)N3c3ccccc3)n2)c(=O)n(-c2ccccc2)n1C`, the EC50 in data set [18] was determined as 23 µg/mL (≈ 36.1 µM); in data set [20], 23 µg/mL (≈ 36.1 µM); in the data set with Hepatitis C virus [11], 12.7 µM. The CC50 in [19] was over 100 µg/mL; in data set [9], over 20 µM; in data set [23], over 100 µg/mL. Moreover, the EC90 in the data set with Hepatitis C virus [11] was over 20 µM. Further, the selectivity ratio was over 2 in [13], over 4.3 in [21] and over 4.2 in data set [22].

What is called EC50 is the concentration giving half of the maximal effect. In general, EC90 refers to the concentration at which the effect reaches the 90% level. As a reminder, the CC50 is the concentration giving 50% cytotoxicity.
